Results reported in PMC4620497 (Scientific Reports, 2015).

What was measured:
TIE1 = biological target: T1, TIE1 (Homo sapiens, UniProt P35590); test: KINOMEscan panel screen; format: binding; settings: read-out: Percent Control(%)
T1 construct: purchased DiscoveRx KINOMEscan (Ambit Biosciences)

PLK2 = biological target: T2, PLK2 (Homo sapiens, UniProt Q9NYY3); test: KINOMEscan panel screen; format: binding; settings: read-out: Percent Control(%)
T2 construct: purchased DiscoveRx KINOMEscan (Ambit Biosciences)

ZAK = biological target: T3, ZAK (Homo sapiens, UniProt Q9NYL2); test: KINOMEscan panel screen; format: binding; settings: read-out: Percent Control(%)
T3 construct: purchased DiscoveRx KINOMEscan (Ambit Biosciences)

MINK = biological target: T4, MINK (Homo sapiens, UniProt Q8N4C8); test: KINOMEscan panel screen; format: binding; settings: read-out: Percent Control(%)
T4 construct: purchased DiscoveRx KINOMEscan (Ambit Biosciences)

AURKC = biological target: T5, AURKC (Homo sapiens, UniProt Q9UQB9); test: KINOMEscan panel screen; format: binding; settings: read-out: Percent Control(%)
T5 construct: purchased DiscoveRx KINOMEscan (Ambit Biosciences)

BRAF = biological target: T6, BRAF (Homo sapiens, UniProt P15056); test: KINOMEscan panel screen; format: binding; settings: read-out: Percent Control(%)
T6 construct: purchased DiscoveRx KINOMEscan (Ambit Biosciences)

FLT3-D835Y = FLT3-D835Y (Homo sapiens, UniProt P36888, D835Y); test: KINOMEscan panel screen; format: binding; design: purchased DiscoveRx KINOMEscan (Ambit Biosciences); settings: read-out: Percent Control(%)
INSR = biological target: T7, INSR (Homo sapiens, UniProt P06213); test: KINOMEscan panel screen; format: binding; settings: read-out: Percent Control(%)
T7 construct: purchased DiscoveRx KINOMEscan (Ambit Biosciences)

EPHB1 = biological target: T8, EPHB1 (Homo sapiens, UniProt P54762); test: KINOMEscan panel screen; format: binding; settings: read-out: Percent Control(%)
T8 construct: purchased DiscoveRx KINOMEscan (Ambit Biosciences)

MERTK = biological target: T9, MERTK (Homo sapiens, UniProt Q12866); test: KINOMEscan panel screen; format: binding; settings: read-out: Percent Control(%)
T9 construct: purchased DiscoveRx KINOMEscan (Ambit Biosciences)

[1] = biological target: T10, RSK2(Kin.Dom.1-N-terminal) (Homo sapiens, UniProt P51812); test: KINOMEscan panel screen; format: binding; settings: read-out: Percent Control(%)
T10 construct: RSK2(Kin.Dom.1-N-terminal); purchased DiscoveRx KINOMEscan (Ambit Biosciences)

ULK1 = biological target: T11, ULK1 (Homo sapiens, UniProt O75385); test: KINOMEscan panel screen; format: binding; settings: read-out: Percent Control(%)
T11 construct: purchased DiscoveRx KINOMEscan (Ambit Biosciences)

FLT3(N841I) = biological target: T12, FLT3(N841I) (Homo sapiens, UniProt P36888, N841I); test: KINOMEscan panel screen; format: binding; settings: read-out: Percent Control(%)
T12 construct: purchased DiscoveRx KINOMEscan (Ambit Biosciences)

MAP3K15 = biological target: T13, MAP3K15 (Homo sapiens, UniProt Q6ZN16); test: KINOMEscan panel screen; format: binding; settings: read-out: Percent Control(%)
T13 construct: purchased DiscoveRx KINOMEscan (Ambit Biosciences)

BUB1 = biological target: T14, BUB1 (Homo sapiens, UniProt O43683); test: KINOMEscan panel screen; format: binding; settings: read-out: Percent Control(%)
T14 construct: purchased DiscoveRx KINOMEscan (Ambit Biosciences)

PIK3C2B = biological target: T15, PIK3C2B (Homo sapiens, UniProt O00750); test: KINOMEscan panel screen; format: binding; settings: read-out: Percent Control(%)
T15 construct: purchased DiscoveRx KINOMEscan (Ambit Biosciences)

ALK = biological target: T16, ALK (Homo sapiens, UniProt Q9UM73); test: KINOMEscan panel screen; format: binding; settings: read-out: Percent Control(%)
T16 construct: purchased DiscoveRx KINOMEscan (Ambit Biosciences)

MRCKB = biological target: T17, MRCKB (Homo sapiens, UniProt Q9Y5S2); test: KINOMEscan panel screen; format: binding; settings: read-out: Percent Control(%)
T17 construct: purchased DiscoveRx KINOMEscan (Ambit Biosciences)

CASK = biological target: T18, CASK (Homo sapiens, UniProt O14936); test: KINOMEscan panel screen; format: binding; settings: read-out: Percent Control(%)
T18 construct: purchased DiscoveRx KINOMEscan (Ambit Biosciences)

ACVR2A = biological target: T19, ACVR2A (Homo sapiens, UniProt P27037); test: KINOMEscan panel screen; format: binding; settings: read-out: Percent Control(%)
T19 construct: purchased DiscoveRx KINOMEscan (Ambit Biosciences)

CDC2L1 = biological target: T20, CDC2L1 (Homo sapiens, UniProt P21127); test: KINOMEscan panel screen; format: binding; settings: read-out: Percent Control(%)
T20 construct: purchased DiscoveRx KINOMEscan (Ambit Biosciences)

FGFR2 = biological target: T21, FGFR2 (Homo sapiens, UniProt P21802); test: KINOMEscan panel screen; format: binding; settings: read-out: Percent Control(%)
T21 construct: purchased DiscoveRx KINOMEscan (Ambit Biosciences)

DRAK2 = biological target: T22, DRAK2 (Homo sapiens, UniProt O94768); test: KINOMEscan panel screen; format: binding; settings: read-out: Percent Control(%)
T22 construct: purchased DiscoveRx KINOMEscan (Ambit Biosciences)

PHKG2 = biological target: T23, PHKG2 (Homo sapiens, UniProt P15735); test: KINOMEscan panel screen; format: binding; settings: read-out: Percent Control(%)
T23 construct: purchased DiscoveRx KINOMEscan (Ambit Biosciences)

SNARK = biological target: T24, SNARK (Homo sapiens, UniProt Q9H093); test: KINOMEscan panel screen; format: binding; settings: read-out: Percent Control(%)
T24 construct: purchased DiscoveRx KINOMEscan (Ambit Biosciences)

PDGFRB = biological target: T25, PDGFRB (Homo sapiens, UniProt P09619); test: KINOMEscan panel screen; format: binding; settings: read-out: Percent Control(%)
T25 construct: purchased DiscoveRx KINOMEscan (Ambit Biosciences)

KIT(D816H) = biological target: T26, KIT(D816H) (Homo sapiens, UniProt P10721, D816H); test: KINOMEscan panel screen; format: binding; settings: read-out: Percent Control(%)
T26 construct: purchased DiscoveRx KINOMEscan (Ambit Biosciences)

RIOK3 = biological target: T27, RIOK3 (Homo sapiens, UniProt O14730); test: KINOMEscan panel screen; format: binding; settings: read-out: Percent Control(%)
T27 construct: purchased DiscoveRx KINOMEscan (Ambit Biosciences)

p38-alpha = biological target: T28, p38-alpha (Homo sapiens, UniProt Q16539); test: KINOMEscan panel screen; format: binding; settings: read-out: Percent Control(%)
T28 construct: purchased DiscoveRx KINOMEscan (Ambit Biosciences)

BRAF(V600E) = biological target: T29, BRAF(V600E) (Homo sapiens, UniProt P15056, V600E); test: KINOMEscan panel screen; format: binding; settings: read-out: Percent Control(%)
T29 construct: purchased DiscoveRx KINOMEscan (Ambit Biosciences)

WEE2 = biological target: T30, WEE2 (Homo sapiens, UniProt P0C1S8); test: KINOMEscan panel screen; format: binding; settings: read-out: Percent Control(%)
T30 construct: purchased DiscoveRx KINOMEscan (Ambit Biosciences)

p38-beta = biological target: T31, p38-beta (Homo sapiens, UniProt Q15759); test: KINOMEscan panel screen; format: binding; settings: read-out: Percent Control(%)
T31 construct: purchased DiscoveRx KINOMEscan (Ambit Biosciences)

[2] = biological target: T32, RSK4(Kin.Dom.2-C-terminal) (Homo sapiens, UniProt Q9UK32); test: KINOMEscan panel screen; format: binding; settings: read-out: Percent Control(%)
T32 construct: RSK4(Kin.Dom.2-C-terminal); purchased DiscoveRx KINOMEscan (Ambit Biosciences)

MLK2 = biological target: T33, MLK2 (Homo sapiens, UniProt Q02779); test: KINOMEscan panel screen; format: binding; settings: read-out: Percent Control(%)
T33 construct: purchased DiscoveRx KINOMEscan (Ambit Biosciences)

ASK1 = biological target: T34, ASK1 (Homo sapiens, UniProt Q99683); test: KINOMEscan panel screen; format: binding; settings: read-out: Percent Control(%)
T34 construct: purchased DiscoveRx KINOMEscan (Ambit Biosciences)

FLT1 = biological target: T35, FLT1 (Homo sapiens, UniProt P17948); test: KINOMEscan panel screen; format: binding; settings: read-out: Percent Control(%)
T35 construct: purchased DiscoveRx KINOMEscan (Ambit Biosciences)

ALK(C1156Y) = biological target: T36, ALK(C1156Y) (Homo sapiens, UniProt Q9UM73, C1156Y); test: KINOMEscan panel screen; format: binding; settings: read-out: Percent Control(%)
T36 construct: purchased DiscoveRx KINOMEscan (Ambit Biosciences)

CLK2 = biological target: T37, CLK2 (Homo sapiens, UniProt P49760); test: KINOMEscan panel screen; format: binding; settings: read-out: Percent Control(%)
T37 construct: purchased DiscoveRx KINOMEscan (Ambit Biosciences)

AMPK-alpha1 = biological target: T38, AMPK-alpha1 (Homo sapiens, UniProt Q13131); test: KINOMEscan panel screen; format: binding; settings: read-out: Percent Control(%)
T38 construct: purchased DiscoveRx KINOMEscan (Ambit Biosciences)

PRKCD = biological target: T39, PRKCD (Homo sapiens, UniProt Q05655); test: KINOMEscan panel screen; format: binding; settings: read-out: Percent Control(%)
T39 construct: purchased DiscoveRx KINOMEscan (Ambit Biosciences)

PDGFRβ = biological target: T40, PDGFRβ (Homo sapiens, UniProt P09619); test: KINOMEscan kinase binding assay (Kd)
T40 construct: purchased Ambit Biosciences (KINOMEscan)

CDK9 = biological target: T41, CDK9 (Homo sapiens, UniProt P50750); test: KINOMEscan panel screen; format: binding; settings: read-out: Percent Control(%)
T41 construct: purchased DiscoveRx KINOMEscan (Ambit Biosciences)
T41 sequence (P50750 whole entry): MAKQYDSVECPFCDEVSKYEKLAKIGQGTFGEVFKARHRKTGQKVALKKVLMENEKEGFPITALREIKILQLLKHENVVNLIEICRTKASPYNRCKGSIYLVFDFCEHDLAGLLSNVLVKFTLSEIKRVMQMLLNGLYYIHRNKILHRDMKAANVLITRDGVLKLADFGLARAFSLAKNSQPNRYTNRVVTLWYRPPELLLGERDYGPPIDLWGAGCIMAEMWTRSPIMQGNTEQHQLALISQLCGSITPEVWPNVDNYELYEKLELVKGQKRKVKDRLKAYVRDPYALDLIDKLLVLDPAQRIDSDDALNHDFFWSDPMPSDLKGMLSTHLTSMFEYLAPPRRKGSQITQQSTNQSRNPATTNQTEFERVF

T4 sequence (Q8N4C8 whole entry): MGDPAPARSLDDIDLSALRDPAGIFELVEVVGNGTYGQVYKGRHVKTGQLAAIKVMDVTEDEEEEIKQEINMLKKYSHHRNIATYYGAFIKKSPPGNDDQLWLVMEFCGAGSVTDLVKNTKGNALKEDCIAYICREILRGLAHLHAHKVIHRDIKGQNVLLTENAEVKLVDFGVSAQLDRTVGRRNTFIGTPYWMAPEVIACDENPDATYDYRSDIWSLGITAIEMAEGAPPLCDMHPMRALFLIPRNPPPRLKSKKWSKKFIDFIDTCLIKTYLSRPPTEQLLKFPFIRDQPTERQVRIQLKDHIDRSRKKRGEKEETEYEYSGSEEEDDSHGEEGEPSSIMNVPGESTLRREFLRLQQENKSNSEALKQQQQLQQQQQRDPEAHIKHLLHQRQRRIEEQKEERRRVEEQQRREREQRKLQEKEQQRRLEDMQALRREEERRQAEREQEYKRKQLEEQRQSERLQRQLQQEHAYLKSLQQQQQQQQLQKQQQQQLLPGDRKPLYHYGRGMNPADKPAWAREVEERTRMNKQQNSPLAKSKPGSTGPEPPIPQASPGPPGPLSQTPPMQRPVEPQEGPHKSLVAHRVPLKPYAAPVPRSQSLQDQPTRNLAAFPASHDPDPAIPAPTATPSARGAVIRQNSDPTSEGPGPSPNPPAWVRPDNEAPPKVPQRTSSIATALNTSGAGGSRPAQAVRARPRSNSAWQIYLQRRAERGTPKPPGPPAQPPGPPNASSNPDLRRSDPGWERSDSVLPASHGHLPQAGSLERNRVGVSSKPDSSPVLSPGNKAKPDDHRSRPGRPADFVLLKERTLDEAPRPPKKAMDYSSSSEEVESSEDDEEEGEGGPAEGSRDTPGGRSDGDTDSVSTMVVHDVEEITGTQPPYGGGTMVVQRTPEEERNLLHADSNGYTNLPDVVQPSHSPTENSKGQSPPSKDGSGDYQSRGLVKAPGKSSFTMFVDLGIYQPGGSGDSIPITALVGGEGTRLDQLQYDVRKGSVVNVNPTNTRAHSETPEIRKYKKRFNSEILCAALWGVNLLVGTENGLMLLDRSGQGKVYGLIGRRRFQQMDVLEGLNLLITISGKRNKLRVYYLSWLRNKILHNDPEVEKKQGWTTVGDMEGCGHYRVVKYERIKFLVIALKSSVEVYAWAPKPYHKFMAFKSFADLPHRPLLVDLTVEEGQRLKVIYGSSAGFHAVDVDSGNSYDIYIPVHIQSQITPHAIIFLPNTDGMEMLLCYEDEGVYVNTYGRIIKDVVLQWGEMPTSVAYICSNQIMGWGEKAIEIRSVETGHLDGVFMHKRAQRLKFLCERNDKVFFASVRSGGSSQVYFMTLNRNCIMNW
T20 sequence (P21127 whole entry): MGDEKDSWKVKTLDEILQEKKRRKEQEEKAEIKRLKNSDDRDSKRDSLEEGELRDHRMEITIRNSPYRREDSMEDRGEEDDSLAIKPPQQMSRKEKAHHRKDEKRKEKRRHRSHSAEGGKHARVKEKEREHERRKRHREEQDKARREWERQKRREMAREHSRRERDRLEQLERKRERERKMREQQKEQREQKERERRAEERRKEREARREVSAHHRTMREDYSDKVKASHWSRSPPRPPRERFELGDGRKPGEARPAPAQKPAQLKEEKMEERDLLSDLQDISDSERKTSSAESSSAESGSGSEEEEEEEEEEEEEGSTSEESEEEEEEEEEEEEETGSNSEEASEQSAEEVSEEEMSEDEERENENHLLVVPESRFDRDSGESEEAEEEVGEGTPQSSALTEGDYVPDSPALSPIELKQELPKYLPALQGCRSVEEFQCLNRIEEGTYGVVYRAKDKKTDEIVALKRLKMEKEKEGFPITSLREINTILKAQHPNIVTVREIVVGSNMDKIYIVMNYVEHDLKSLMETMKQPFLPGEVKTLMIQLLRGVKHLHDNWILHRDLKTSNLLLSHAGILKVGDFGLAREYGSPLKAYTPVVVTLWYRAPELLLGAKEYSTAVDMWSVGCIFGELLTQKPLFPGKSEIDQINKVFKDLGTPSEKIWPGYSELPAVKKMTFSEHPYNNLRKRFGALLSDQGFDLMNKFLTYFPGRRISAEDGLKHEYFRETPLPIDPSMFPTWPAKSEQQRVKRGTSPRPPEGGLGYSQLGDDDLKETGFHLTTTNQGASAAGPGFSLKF
T28 sequence (Q16539 whole entry): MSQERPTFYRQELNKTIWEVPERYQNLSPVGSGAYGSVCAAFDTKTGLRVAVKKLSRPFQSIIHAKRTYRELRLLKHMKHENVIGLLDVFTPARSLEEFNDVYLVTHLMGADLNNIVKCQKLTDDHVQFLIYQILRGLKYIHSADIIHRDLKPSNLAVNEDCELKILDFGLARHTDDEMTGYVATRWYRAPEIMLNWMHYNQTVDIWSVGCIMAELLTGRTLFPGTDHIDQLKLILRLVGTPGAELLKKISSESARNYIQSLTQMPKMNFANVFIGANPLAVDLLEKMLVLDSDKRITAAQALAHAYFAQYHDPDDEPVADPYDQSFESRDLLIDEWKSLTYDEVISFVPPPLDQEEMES
T36 sequence (Q9UM73 19-1620 C1156Y): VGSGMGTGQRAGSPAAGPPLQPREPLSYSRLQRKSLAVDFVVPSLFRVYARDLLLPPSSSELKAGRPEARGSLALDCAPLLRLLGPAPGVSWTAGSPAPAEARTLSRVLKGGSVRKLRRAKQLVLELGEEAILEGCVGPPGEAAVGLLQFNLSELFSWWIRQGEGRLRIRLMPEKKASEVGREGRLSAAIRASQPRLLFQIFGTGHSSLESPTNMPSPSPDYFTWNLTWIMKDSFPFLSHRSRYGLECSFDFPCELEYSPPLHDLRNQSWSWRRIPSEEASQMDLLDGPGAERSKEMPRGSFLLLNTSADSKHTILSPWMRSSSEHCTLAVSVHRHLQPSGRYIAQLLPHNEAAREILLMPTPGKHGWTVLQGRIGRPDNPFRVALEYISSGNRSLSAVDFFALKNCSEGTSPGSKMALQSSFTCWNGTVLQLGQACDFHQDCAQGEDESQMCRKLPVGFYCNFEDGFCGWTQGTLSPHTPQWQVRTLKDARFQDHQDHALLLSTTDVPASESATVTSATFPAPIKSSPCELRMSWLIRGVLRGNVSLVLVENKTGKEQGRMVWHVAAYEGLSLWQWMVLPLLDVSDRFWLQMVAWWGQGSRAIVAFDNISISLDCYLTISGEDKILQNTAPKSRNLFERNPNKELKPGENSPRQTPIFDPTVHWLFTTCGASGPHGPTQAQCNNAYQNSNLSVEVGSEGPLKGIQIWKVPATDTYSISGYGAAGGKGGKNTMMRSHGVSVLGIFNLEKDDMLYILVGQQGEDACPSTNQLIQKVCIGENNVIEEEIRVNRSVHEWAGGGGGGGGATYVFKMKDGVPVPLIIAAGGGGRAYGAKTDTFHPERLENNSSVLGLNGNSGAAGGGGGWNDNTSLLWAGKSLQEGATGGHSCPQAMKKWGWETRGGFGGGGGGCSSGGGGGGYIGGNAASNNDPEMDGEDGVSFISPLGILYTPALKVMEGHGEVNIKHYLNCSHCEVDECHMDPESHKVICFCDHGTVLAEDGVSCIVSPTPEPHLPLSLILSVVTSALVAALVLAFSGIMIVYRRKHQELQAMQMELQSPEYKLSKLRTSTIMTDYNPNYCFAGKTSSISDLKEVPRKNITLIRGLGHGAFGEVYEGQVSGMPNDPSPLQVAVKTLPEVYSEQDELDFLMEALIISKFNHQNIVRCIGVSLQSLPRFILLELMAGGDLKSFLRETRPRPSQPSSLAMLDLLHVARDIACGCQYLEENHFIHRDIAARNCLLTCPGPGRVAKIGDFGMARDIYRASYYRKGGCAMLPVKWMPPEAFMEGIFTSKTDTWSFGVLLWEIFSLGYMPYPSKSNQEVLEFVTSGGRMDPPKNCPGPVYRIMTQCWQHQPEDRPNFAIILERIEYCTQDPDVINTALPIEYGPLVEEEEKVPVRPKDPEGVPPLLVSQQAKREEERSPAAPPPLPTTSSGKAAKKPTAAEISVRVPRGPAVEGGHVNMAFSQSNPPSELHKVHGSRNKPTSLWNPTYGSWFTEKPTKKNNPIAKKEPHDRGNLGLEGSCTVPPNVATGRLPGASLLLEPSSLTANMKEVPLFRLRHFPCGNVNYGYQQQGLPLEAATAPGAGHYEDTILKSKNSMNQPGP
T23 sequence (P15735 whole entry): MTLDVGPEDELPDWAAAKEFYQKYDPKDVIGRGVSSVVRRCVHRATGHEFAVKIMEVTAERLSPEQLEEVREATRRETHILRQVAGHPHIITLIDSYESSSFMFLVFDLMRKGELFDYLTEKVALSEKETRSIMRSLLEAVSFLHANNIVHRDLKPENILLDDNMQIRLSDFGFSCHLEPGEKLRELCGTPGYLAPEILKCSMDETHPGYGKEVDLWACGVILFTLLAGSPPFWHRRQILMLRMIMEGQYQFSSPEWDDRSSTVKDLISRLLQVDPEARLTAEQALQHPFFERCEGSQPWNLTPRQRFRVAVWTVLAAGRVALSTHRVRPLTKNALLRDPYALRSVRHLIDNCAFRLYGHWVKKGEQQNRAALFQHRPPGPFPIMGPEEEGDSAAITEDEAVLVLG
T16 sequence (Q9UM73 19-1620): as the sequence (Q9UM73 19-1620 C1156Y) above, with Y1138C counted along it

SMILES: CC(C)(C)c1cc(NC(=O)Nc2ccc(Oc3ncnc4[nH]ncc34)c(F)c2)no1 [SKLB-677, 1-(4-(1H-pyrazolo[3,4-d]pyrimidin-4-yloxy)-3-fluorophenyl)-3-(5-tert-butylisoxazol-3-yl)urea]
- remaining binding at 10 µM (TIE1): 8.7%
- remaining binding at 10 µM (PLK2): 100%
- remaining binding at 10 µM (ZAK): 1.5%
- remaining binding at 10 µM (MINK): 2.3%
- remaining binding at 10 µM (AURKC): 1.4%
- remaining binding at 10 µM (BRAF): 2.7%
- remaining binding at 10 µM (FLT3-D835Y): 3.2%
- remaining binding at 10 µM (INSR): 87%
- remaining binding at 10 µM (EPHB1): 3.2%
- remaining binding at 10 µM (MERTK): 0%
- remaining binding at 10 µM [1]: 35%
- remaining binding at 10 µM (ULK1): 70%
- remaining binding at 10 µM (FLT3(N841I)): 0%
- remaining binding at 10 µM (MAP3K15): 100%
- remaining binding at 10 µM (BUB1): 66%
- remaining binding at 10 µM (PIK3C2B): 100%
- remaining binding at 10 µM (ALK): 4.8%
- remaining binding at 10 µM (MRCKB): 90%
- remaining binding at 10 µM (CASK): 59%
- remaining binding at 10 µM (ACVR2A): 100%
- remaining binding at 10 µM (CDC2L1): 66%
- remaining binding at 10 µM (FGFR2): 2%
- remaining binding at 10 µM (DRAK2): 78%
- remaining binding at 10 µM (PHKG2): 100%
- remaining binding at 10 µM (SNARK): 66%
- remaining binding at 10 µM (PDGFRB): 0%
- remaining binding at 10 µM (KIT(D816H)): 8.4%
- remaining binding at 10 µM (RIOK3): 100%
- remaining binding at 10 µM (p38-alpha): 0%
- remaining binding at 10 µM (BRAF(V600E)): 0.05%
- remaining binding at 10 µM (WEE2): 78%
- remaining binding at 10 µM (p38-beta): 0.2%
- remaining binding at 10 µM [2]: 72%
- remaining binding at 10 µM (MLK2): 99%
- remaining binding at 10 µM (ASK1): 57%
- remaining binding at 10 µM (FLT1): 0.05%
- remaining binding at 10 µM (ALK(C1156Y)): 17%
- remaining binding at 10 µM (CLK2): 6.4%
- remaining binding at 10 µM (AMPK-alpha1): 3%
- remaining binding at 10 µM (PRKCD): 61%
- Kd (PDGFRβ): 2.7 nM
- remaining binding at 10 µM (CDK9): 5.6%
